Experimental data published in paper PMC12250211, “Discovery of Novel Genes Encoding Antimicrobial Peptides from the Pedobacter silvilitoris Genome with Broad-Spectrum Antimicrobial Activity” (International Journal of Molecular Sciences, 2025).
Ends that are not written are not given here.

Experiments:
[1] = system: Staphylococcus aureus (ATCC 6538); assay: Microtiter plate antimicrobial assay (relative growth rate, A600); assay type: cell-based; conditions: synthetic peptide; for MIC50: 10 mg/mL stock in distilled water, 10^6 CFU/mL, overnight culture 37 °C, A600, Figure 5B
Procedure: (§1) The cell-free supernatant of P. silvilitoris or all E. coli DH5α strains containing cloned AMPs was collected after 24 h of culture and filtered through a 0.2-μm syringe (mixed cellulose esters (MCE), Merck, Darmstadt, Germany), and finally the cell-free supernatant was used for the evaluation of antimicrobial activity. The cell-free supernatant from the E. coli DH5α, harboring only the plasmid vector without the PS_AMP genes, was confirmed as a negative control to have very little effect on antimicrobial activities. The synthesized AMPs were suspended at a concentration of 10 mg/mL in distilled water and then used for antimicrobial activity.
(§2) The antimicrobial activities against S. Typhimurium (KCTC12401), E. coli (ATCC 10536), B. cereus (ATCC 11778), S. iniae (KCTC3657), S. aureus (ATCC 6538) and C. albicans (KCTC7122) were analyzed using the microtiter plate method and expressed as minimal inhibition concentration (MIC); the bacteria pre-cultured overnight (O/N) were mixed with 10^6 CFU/mL with the cell-free supernatant or the synthetic peptides, the reaction mixtures were added to the microtiter plate, and finally the reactivity was observed by the O/N culture at 37 °C. […] The relative activity of the treated samples was then expressed as a ratio of their A600 values to that of the control.Relative growth rate = A/B A: the treated sample A600 value B: non-treated (control) A600 value

[2] = system: Escherichia coli (ATCC 10536); assay: as above; assay type: cell-based; conditions: synthetic peptide, 10 mg/mL stock in distilled water, 10^6 CFU/mL, overnight culture 37 °C, Figure 5A
Procedure: as §1, §2

| Sequence | MIC50 [1] | estimated MIC50 ([1]; test strain not printed, AMP4.1 value agrees with the S. aureus value of b25) | MIC50 [2] |
| --- | --- | --- | --- |
| DKGLEKTKDNFF [PS_AMP4.1] | 2200 µg/mL | – | – |
| GLFDFFKKKDKTTDEQEALDK [PS_AMP4.2] | – | 3000 µg/mL | – |
| LKLKKEQIELLKKIANK [PS_AMP11.1] | 2000 µg/mL | – | 1900 µg/mL |
